Measured values from US20050215433A1, “Aromatic fluid as agricultural solvent” (priority 2004, published 2005).

Legend:
Format in all cases: physicochemical
[1] = Solubility of pesticide in the solvent (highest concentration without crystallization); conditions: no crystals after seeding; for Solubility in Weight %: Bromoxynil Octanoate: pesticide Bromoxynil Octanoate dissolved in the solvent; for Solubility in Weight %: Chlorpyrifos: pesticide Chlorpyrifos dissolved in the solvent; for Solubility in Weight %: Pendimethalin: pesticide Pendimethalin dissolved in the solvent; for Solubility in Weight %: Permethrin: pesticide Permethrin dissolved in the solvent; for Solubility in Weight %: Trifluralin: pesticide Trifluralin dissolved in the solvent
Method: Solubility was determined by adding a predetermined weight of pesticide to a vial and then adding the solvent to within 10 grams to make the appropriate concentrations. Several different concentrations were made. […] The vials were capped and inverted several times to completely dissolve the pesticide. If the pesticide was not completely dissolved, the vials were placed in a beaker filled with warm water until the pesticide dissolved. The water was not heated closer than 30° C. of the flash point of the solvent being tested. The vial was removed from the heated beaker and was left to stand for 3 hours at room temperature. The vial was then placed into a chiller, an ethylene glycol bath, if a lower temperature was desired. […] If crystals were present, the solutions in the vials were diluted, the vials were inverted several times, the vials were either heated or cooled, and the vials were checked for crystals. The vials were allowed to stand for 24 hours and were then rechecked for crystals. If crystals were still absent after 24 hours, one crystal of pesticide was added to the vial (seeding) and the vial was inverted several times to assure the crystal was dissolved. The vial was left to stand for 48 hours and rechecked for crystals. If crystals were present, the solution was diluted further and the previous steps were repeated until no crystals appeared after seeding. […] The test was started again at the beginning with higher concentrations of the pesticide in the solvent.

[2] = Kauri Butanol Value, variation of ASTM D-1133-02; conditions: 20 grams kauri-butanol solution titrated with the solvent
Method: Kauri Butanol Value was determined by a variation of ASTM D-1133-02. In a […] Erlenmeyer flask, 20 grams (±0.1 grams) of kauri-butanol solution was added. The flask was placed in a water bath at 20° C. (±1° C.). A 50-milliliter burette was filled with the solvent being tested. The standardized kauri-butanol solution was titrated with the solvent being tested until the end point was reached. A photocopy of the residence listings from a telephone book was used as the 10 point print sample placed directly beneath the water bath. The tester looked through the liquid at the print to observe the end point. […] The volume in milliliters of solvent added to the flask to produce turbidity was recorded. The kauri-butanol values were calculated using the following formula: Kauri-Butanol value=[65(C−B)/(A−B)]+40 (1) where A is the milliliters of toluene required to titrate 20 grams of kauri-butanol solution (the A factor should be on the certificate of analysis that accompanies the standardized kauri-butanol solution); • B is the milliliters of n-heptane-toluene blend required to titrate 20 grams of kauri butanol solution (the B factor should be on the certificate of analysis that accompanies the standardized kauri-butanol solution); and • C is the milliliters of solvent being tested that are required to titrate 20 grams of kauri-butanol solution. […]

[3] = Mixed Aniline Point, variation of ASTM D-611-82; conditions: 10 milliliters aniline + 5 milliliters sample + 5 milliliters n-heptane
Method: For the Mixed Aniline Point, 10 milliliters of aniline was added to a test tube. The test tube was fitted with a suitable stirrer and thermometer. The thermometer was centered in the test tube and some padding was kept at the base of the stand to avoid breakage of the test tube if it slipped. […] Added to the test tube containing aniline was 5 milliliters of sample and 5 milliliters of n-heptane. The test tube was placed into a cooling bath of isopropyl alcohol and dry ice. The mixture was continuously stirred rapidly using 2 inch strokes, avoiding introduction of air bubbles. The mixture was allowed to cool below the first appearance of turbidity and the Mixed Aniline Point was recorded.

Row | Molecule | Solubility in Weight %: Bromoxynil Octanoate [1] [Weight %] | Solubility in Weight %: Chlorpyrifos [1] [Weight %] | Solubility in Weight %: Pendimethalin [1] [Weight %] | Solubility in Weight %: Permethrin [1] [Weight %] | Solubility in Weight %: Trifluralin [1] [Weight %] | Kauri-Butanol Value [2] | Mixed Aniline Point [3] [°C]
1 | CN1CCCC1=O [Example 10, 1-Methyl-2-Pyrrilidinone] | 75 | 80 | 55 | 75 | 70 |  | 
2 | CCCCCCCCCCCCc1ccccc1 [Example 17, Dodecyl Benzene] | 40 | 50 | 20 | 45 | 25 | 36 | 43
3 | Monopentylindan [Example 11] | 50 | 60 | 25 | 65 | 35 |  | 
4 | Cc1cc(C)cc(C(C)(C)C)c1 [Example 5, 5-ter-Butyl-m-Xylene] | 61 | 65 | 35 | 65 | 50 | 66 | 28
5 | Dipentylindan [Example 12] | 25 | 40 | <15 | 50 | <15 |  | 
